# Measurements from patent publication US6506799B1, “Methods of treating cardiovascular diseases, dyslipidemia, dyslipoproteinemia, and hypertension with ether compounds” (Esperion Therapeutics, Inc., priority 1999, dated 2003).
# System: chow fed obese female Zucker rats
# Test: Experiments B, C, D, E: serum lipids, glucose, insulin, body and liver weight in obese female Zucker rats, 14 days
# Assay type: in vivo, rat
# Conditions: for Body Weight Gain (% of Pretreatment) / HDL-Cholesterol (% of Pretreatment) / Non HDL-Cholesterol (% of Pretreatment) / Triglycerides (% of Pretreatment): 14 days
# Protocol: In a number of different experiments, illustrative compounds of the invention and troglitazone were administered daily at various doses to 10-week old chow fed obese female Zucker rats for 14 days in the morning by oral gavage in 1.5% carboxymethylcellulose/0.2% Tween-20 (dosing vehicle). Animals were weighed daily. Animals were allowed free access to rodent chow and water throughout the study. Blood glucose was determined after a 6-hour fast in the afternoon without anesthesia from a tail vein. Serum was also prepared from a blood sample subsequently obtained from the orbital venous plexus (with O2/CO2 anesthesia) prior to and after one week treatment and used lipid and insulin determinations. At two weeks, blood glucose was again determined after a 6-hour fast without anesthesia from a tail vein. Soon thereafter, animals were sacrificed by CO2 inhalation in the evening and cardiac blood serum was collected and assessed for various lipids and insulin. Body weight was determined daily prior to dosing and at the time of euthanasia.
# [1] = Experiment C, 100 mg/kg, after two weeks of treatment
smiles,measurement,setting,value
"CC(C)(CO)CCCCOCCCCC(C)(C)CO [Compound A, 6-(6-hydroxy-5,5-dimethylhexyloxy)-2,2-dimethyl-hexan-1-ol]",Body Weight Gain (% of Pretreatment),"Experiment C, 1 mg/kg/day",+16.7 % of Pretreatment
same,HDL-Cholesterol (% of Pretreatment),"Experiment C, 1 mg/kg/day",−24.1 % of Pretreatment
same,Non HDL-Cholesterol (% of Pretreatment),"Experiment C, 1 mg/kg/day",−25.6 % of Pretreatment
same,Triglycerides (% of Pretreatment),"Experiment C, 1 mg/kg/day",−8.8 % of Pretreatment
same,Body Weight Gain (% of Pretreatment),"Experiment C, 3 mg/kg/day",+17.5 % of Pretreatment
same,HDL-Cholesterol (% of Pretreatment),"Experiment C, 3 mg/kg/day",−3.7 % of Pretreatment
same,Non HDL-Cholesterol (% of Pretreatment),"Experiment C, 3 mg/kg/day",−29.6 % of Pretreatment
same,Triglycerides (% of Pretreatment),"Experiment C, 3 mg/kg/day",−24.6 % of Pretreatment
same,Body Weight Gain (% of Pretreatment),"Experiment C, 10 mg/kg/day",+10.7 % of Pretreatment
same,HDL-Cholesterol (% of Pretreatment),"Experiment C, 10 mg/kg/day",+154.4 % of Pretreatment
same,Non HDL-Cholesterol (% of Pretreatment),"Experiment C, 10 mg/kg/day",−14.2 % of Pretreatment
same,Triglycerides (% of Pretreatment),"Experiment C, 10 mg/kg/day",−50.9 % of Pretreatment
same,Body Weight Gain (% of Pretreatment),"Experiment C, 30 mg/kg/day",+11.3 % of Pretreatment
same,HDL-Cholesterol (% of Pretreatment),"Experiment C, 30 mg/kg/day",+369.7 % of Pretreatment
same,Non HDL-Cholesterol (% of Pretreatment),"Experiment C, 30 mg/kg/day",+38.4 % of Pretreatment
same,Triglycerides (% of Pretreatment),"Experiment C, 30 mg/kg/day",−42.0 % of Pretreatment
same,glucose to insulin ratio,"Experiment C, 100 mg/kg",reduced
same,Body Weight Gain (% of Pretreatment),"Experiment C, 100 mg/kg/day",+9.2 % of Pretreatment
same,HDL-Cholesterol (% of Pretreatment),"Experiment C, 100 mg/kg/day",+801.8 % of Pretreatment
same,Non HDL-Cholesterol (% of Pretreatment),"Experiment C, 100 mg/kg/day",+45.1 % of Pretreatment
same,Triglycerides (% of Pretreatment),"Experiment C, 100 mg/kg/day",−57.0 % of Pretreatment
same,HDL-cholesterol increase,[1],802%
same,elevation of HDL-cholesterol,[1],9 fold
same,blood glucose,"Experiment C, 100 mg/kg, fasted",tendency to lower blood glucose
same,glucose to insulin ratio,"Experiment C, 1 and 3 mg/kg, two weeks",declined by approximately ⅓ to ½
same,weight gain,"Experiment C, 10, 30 and 100 mg/kg, after one and two weeks",markedly reduced
same,glucose to insulin ratio,"Experiment C, 10 and 30 mg/kg",sustained at pretreatment levels
same,minimal effective dose for reduction in serum triglycerides,"Experiment C, FIG. 10",approximately 3 mg/kg
same,dose at which elevation of serum total cholesterol begins,"Experiment C, FIG. 11",approximately 10 mg/kg/day
same,percent liver to body weight,"Experiment C, after two weeks of treatment, FIG. 16",increased in a dose dependent manner
same,serum triglyceride levels,"Experiment C, doses 1-100 mg/kg, FIG. 10",reduced serum triglyceride levels at all doses
same,rise in serum insulin,"Experiment C, higher doses (10, 30, 100 mg/kg)",largely curtailed or minimized
same,Body Weight Gain (% of Pretreatment),"Experiment D, 10 mg/kg/day",+2.2 % of Pretreatment
same,HDL-Cholesterol (% of Pretreatment),"Experiment D, 10 mg/kg/day",+133.9 % of Pretreatment
same,Non HDL-Cholesterol (% of Pretreatment),"Experiment D, 10 mg/kg/day",+49.3 % of Pretreatment
same,Triglycerides (% of Pretreatment),"Experiment D, 10 mg/kg/day",−11.1 % of Pretreatment
same,Body Weight Gain (% of Pretreatment),"Experiment D, 100 mg/kg/day",+4.5 % of Pretreatment
same,HDL-Cholesterol (% of Pretreatment),"Experiment D, 100 mg/kg/day",+187.9 % of Pretreatment
same,Non HDL-Cholesterol (% of Pretreatment),"Experiment D, 100 mg/kg/day",+7.5 % of Pretreatment
same,Triglycerides (% of Pretreatment),"Experiment D, 100 mg/kg/day",−62.9 % of Pretreatment
same,Body Weight Gain (% of Pretreatment),"Experiment E, 100 mg/kg/day",+19.1 % of Pretreatment
same,HDL-Cholesterol (% of Pretreatment),"Experiment E, 100 mg/kg/day",+232.1 % of Pretreatment
same,Non HDL-Cholesterol (% of Pretreatment),"Experiment E, 100 mg/kg/day",+7.2 % of Pretreatment
same,Triglycerides (% of Pretreatment),"Experiment E, 100 mg/kg/day",−43.2 % of Pretreatment
